The values below come from ChEMBL document CHEMBL1147711, “Tetrazole thioacetanilides: potent non-nucleoside inhibitors of WT HIV reverse transcriptase and its K103N mutant” (Bioorg Med Chem Lett, 2006).

pIC50: −log10 of the molar value.

The target in series [1] is Human immunodeficiency virus type 1 reverse transcriptase (Human immunodeficiency virus 1, UniProt Q72547). Nature of the series: Inhibition of HIV1 wild type Reverse Transcriptase.
Series [2] concerns Human immunodeficiency virus 1. Nature of the series: Antiviral activity against HIV1 in presence of 10% FBS. The format is functional. To be noted: read-out: CIC95.
Series [3] has as its system Human immunodeficiency virus 1. Nature of the series: Antiviral activity against HIV1 in presence of 50% NHS. To be noted: read-out: CIC95. The format is functional.
Series [4] deals with Human immunodeficiency virus type 1 reverse transcriptase (Human immunodeficiency virus 1), Q72547 [UNDEFINED MUTATION]. Nature of the series: Ratio of K103N mutant IC50 to wild type Reverse Transcriptase IC50.
Series [5] can be described thus: Oral bioavailability in rat at 3 mg/kg, iv and po. The format is ADME, organism-based. To be noted: in vivo.

For the compound `Cc1cc(C)c(-n2nnnc2SCC(=O)Nc2ccc(S(N)(=O)=O)cc2)c(C)c1`, the negative-log IC50 (pIC50) (usually the IC50 on a negative log10 scale, so that one unit is a factor of ten) in series [1] is 5.90. The IC95 in series [2] is 1250 nM; in series [3] it was > 5000 nM.
With `Cc1cc(C)c(-n2nnnc2SCC(=O)Nc2ccc(C(N)=O)cc2C)c(C)c1`, the negative-log IC50 (pIC50) in series [1] is 7.26. In addition, the Ratio in series [4] was 1. Besides, the IC95 in series [2] came out at 31 nM; in series [3] it was 62 nM.
Take `Cc1cc(C)c(-n2nnnc2SCC(=O)Nc2c(Cl)cccc2Cl)c(C)c1`: the pIC50 in series [1] was < 5.30. Further, the IC95 in series [2] and in series [3] was > 5000 nM throughout.
For `Cc1cc(C)c(-n2nnnc2SCC(=O)Nc2ccccc2I)c(C)c1`, the negative logarithm of the IC50 (pIC50) in series [1] was 7.51. Further, the Ratio in series [4] stood at 3. In addition, the IC95 is 312 nM in series [2] and 1250 nM in series [3].
For `Cc1ccc(-n2nnnc2SCC(=O)Nc2ccccc2[N+](=O)[O-])c(Br)c1` the same measures were 8.52, 3, 8 nM and 62 nM.
Compound `Cc1cc(C)c(-n2nnnc2SCC(=O)Nc2ccc([N+](=O)[O-])cc2Cl)c(C)c1` had a pIC50 in series [1] of 7.66. The Ratio in series [4] is 5. Also, the IC95 in series [2] came to 78 nM; in series [3] it was 1250 nM.
Regarding `Cc1cc(C)c(-n2nnnc2SCC(=O)Nc2ccc(C(N)=O)cc2Cl)c(C)c1`, the pIC50 in series [1] was 8.52. Moreover, the Ratio in series [4] was determined as 2. The IC95 in series [2] was 8 nM; in series [3], 16 nM.
On the same counts, the results for `O=C(CSc1nnnn1-c1c(Cl)cccc1Cl)Nc1ccccc1[N+](=O)[O-]` are 8.40, 1, 15 nM and 62 nM.
In series [1], `O=C(CSc1nnnn1-c1cc(Cl)ccc1Cl)Nc1ccccc1[N+](=O)[O-]` gave a pIC50 of 8.40. In addition, in series [4], the Ratio stood at 1. In addition, the figures for the IC95 in series [2] and in series [3] were 31 nM and 200 nM, respectively.
`NS(=O)(=O)c1ccc(NC(=O)CSc2nnnn2-c2cc(Cl)ccc2Cl)c(Cl)c1`: in series [1], the pIC50 was 8.52. The Ratio in series [4] was 1. The values for the IC95 in series [2] and in series [3] were 16 nM and 125 nM, respectively. The bioavailability – broadly, the share of a dose that reaches the circulation, judged against a reference dose that is usually intravenous – in series [5] came to 33%.
`O=C(CSc1nnnn1-c1cc(F)ccc1Cl)Nc1ccccc1[N+](=O)[O-]` gave a pIC50 in series [1] of 8.00. For the same compound, the Ratio in series [4] worked out at 1. For the same compound, the IC95 stood at 63 nM in series [2] and 250 nM in series [3].
Turning to `Cc1cc(C)c(-n2nnnc2SCC(=O)Nc2ccc(S(N)(=O)=O)cc2Cl)c(C)c1`, the pIC50 in series [1] is 8.40. In series [4], the Ratio was found to be 3. The IC95 in series [2] was determined as 16 nM; in series [3] it was 62 nM. The compound further gave a bioavailability in series [5] of 33%.
Consider `Cc1cc(C)c(-n2nnnc2SCC(=O)Nc2ccccc2Br)c(C)c1`, for which the negative-log IC50 (pIC50) in series [1] was 8.15. The Ratio in series [4] turned out to be 5. Further, the figures for the IC95 in series [2] and in series [3] were 100 nM and 810 nM, respectively.
On to `Cc1cc(C)c(-n2nnnc2SCC(=O)Nc2ccc(OCCCN(C)C)cc2Cl)c(C)c1`, for which, in series [1], the pIC50 was 7.89. Moreover, the Ratio in series [4] came out at 5. In addition, the IC95 in series [2] and in series [3] was 62 nM throughout.
The compound `NS(=O)(=O)c1ccc(NC(=O)CSc2nnnn2-c2cccc(Cl)c2Cl)c(Cl)c1` had a pIC50 in series [1] of 8.05. In series [4], the Ratio was 1. Besides, the IC95 in series [2] was 62 nM; in series [3] it was 250 nM.
`Cc1cc(C)c(-n2nnnc2SCC(=O)Nc2ccccc2[N+](=O)[O-])c(C)c1` gave a pIC50 in series [1] of 8.52. In series [4], the Ratio was 3. For the same compound, the IC95 worked out at 11 nM in series [2] and 90 nM in series [3]. This compound yielded a bioavailability in series [5] of 0%.
Compound `Cc1cc(C)c(-n2nnnc2SCC(=O)Nc2ccc([N+](=O)[O-])cc2C)c(C)c1` gave a pIC50 in series [1] of 6.78. Moreover, the Ratio in series [4] stood at 3. Also, the IC95 in series [2] was 1250 nM; in series [3], > 5000 nM.
Regarding `Cc1cc(C)c(-n2nnnc2SCC(=O)Nc2ccc(Cl)cc2[N+](=O)[O-])c(C)c1`, in series [1], the negative logarithm of the IC50 (pIC50) is 8.40. Moreover, the Ratio in series [4] was determined as 3. Moreover, the IC95 in series [2] was determined as 31 nM; in series [3], 400 nM.
Take `Cc1cc(C)c(-n2nnnc2SCC(=O)Nc2ccc([N+](=O)[O-])cc2)c(C)c1`: the negative logarithm of the IC50 (pIC50) in series [1] is < 5.30. Besides, the IC95 in series [2] and in series [3] was > 5000 nM throughout.
In series [1], `Cc1cc(C)c(-n2nnnc2SCC(=O)Nc2ccccc2Cl)c(C)c1` gave a pIC50 of 8.30. Besides, the Ratio in series [4] came out at 3.
Compound `O=C(CSc1nnnn1-c1ccc(Cl)c(Cl)c1)Nc1ccccc1[N+](=O)[O-]` had a pIC50 in series [1] of 6.64. Also, in series [4], the Ratio was determined as 2. Also, the IC95 in series [2] and in series [3] was > 5000 nM throughout.
With `Cc1cc(C)c(-n2nnnc2SCC(=O)Nc2ccc(C(=O)NCCCN(C)C)cc2Cl)c(C)c1`, the negative-log IC50 (pIC50) in series [1] is 8.30. Besides, the Ratio in series [4] came out at 2. Besides, the IC95 in series [2] worked out at 8 nM; in series [3] it was 16 nM.
Consider `Cc1c(Cl)cccc1-n1nnnc1SCC(=O)Nc1ccccc1[N+](=O)[O-]`, for which the pIC50 in series [1] is 8.52. Further, the Ratio in series [4] was 3. Moreover, the IC95 in series [2] is 8 nM; in series [3] it was 31 nM.
`Cc1cc(C)c(-n2nnnc2SCC(=O)Nc2ccc(S(N)(=O)=O)cc2C)c(C)c1` had a pIC50 in series [1] of 7.27. Also, in series [4], the Ratio came out at 1. In addition, the IC95 in series [2] is 50 nM; in series [3] it was 580 nM. The bioavailability in series [5] is 60%.
In the case of `Cc1cccc(-n2nnnc2SCC(=O)Nc2ccccc2[N+](=O)[O-])c1C`, the pIC50 in series [1] is 7.74. In addition, the Ratio in series [4] is 1. The IC95 came out at 63 nM in series [2] and 250 nM in series [3].
In the case of `O=C(CSc1nnnn1-c1cccc(Cl)c1Cl)Nc1ccccc1[N+](=O)[O-]`, the pIC50 in series [1] was 7.92. Moreover, the Ratio in series [4] came to 1. The IC95 in series [2] worked out at 78 nM; in series [3] it was 125 nM.
On to `Cc1cc(C)c(-n2nnnc2SCC(=O)Nc2cccc([N+](=O)[O-])c2)c(C)c1`, for which the pIC50 in series [1] is 6.70. The IC95 in series [2] was > 5000 nM.
`Cc1ccc(Cl)cc1-n1nnnc1SCC(=O)Nc1ccccc1[N+](=O)[O-]` had a pIC50 in series [1] of 7.64. The Ratio in series [4] worked out at 1. Also, the IC95 in series [2] turned out to be 78 nM; in series [3], 1250 nM.
